Usually GI50 stands for the concentration at which growth is held to half of that of the control. A word on the TGI: it is the concentration giving total growth inhibition. Read a high TGI as lower sensitivity of the cells.

Test systems include SK-OV-3 ovarian; HOP-62 NSCLC; HCT-15 colon; SN12C renal; OVCAR-3 ovarian; OVCAR-5 ovarian; SF-268 CNS; A498 renal; SK-MEL-5 melanoma; U251 CNS.
What all share (experiment): DTP human tumour cell line panel, 48 h

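Five concentrations, 48 hours, 96-well plates. Here, GI50 denotes the concentration required for 50% inhibition of growth. TGI: total growth inhibition.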

Regarding `COc1ccc(-c2ccc(/C=N/n3c(COc4ccc(Cl)cc4Cl)nn(CN4CCOCC4)c3=S)o2)c([N+](=O)[O-])c1`, the GI50 with SK-OV-3 ovarian was 10.8 µM; with HOP-62 NSCLC, 35.9 µM; in the assay with HCT-15 colon, 26.9 µM; in the assay with SN12C renal, 24.5 µM; in the assay on OVCAR-3 ovarian it was 14.6 µM; in the assay with OVCAR-5 ovarian, 38.8 µM. The GI50 with SF-268 CNS was 28.6 µM. The TGI with SK-OV-3 ovarian is 52.1 µM; in the assay on HOP-62 NSCLC, above 100 µM; in the assay on HCT-15 colon, above 100 µM; in the assay on SN12C renal, 67.7 µM; in the assay with OVCAR-3 ovarian, 37.9 µM; in the assay with OVCAR-5 ovarian, above 100 µM. The compound also gave a TGI in the assay with SF-268 CNS above 100 µM.
For the compound `COc1ccc(-c2n/c(=C\c3c(O)[nH]c4ccc(OC)cc34)cc3c2=Nc2ccccc2-3)cc1`, the GI50 in the assay with SK-OV-3 ovarian is 22.5 µM; in the assay with A498 renal, 11.6 µM; in the assay with HOP-62 NSCLC, 2.36 µM; with SN12C renal, 4 µM; with OVCAR-5 ovarian, 44.5 µM; with SK-MEL-5 melanoma, 1530 nM. Also, the concentration for total growth inhibition (TGI) in the assay with SK-OV-3 ovarian is 46.6 µM; with A498 renal, 25.4 µM; with HOP-62 NSCLC it was 4.91 µM; with SN12C renal, above 100 µM; in the assay on OVCAR-5 ovarian, above 100 µM; in the assay with SK-MEL-5 melanoma it was 2.91 µM.
In the case of `COc1ccc(OC)c(/C=C2\SC(=S)NC2=O)c1`, the GI50 in the assay with SK-OV-3 ovarian is 33.1 µM; in the assay with HOP-62 NSCLC, 30.9 µM; with HCT-15 colon, 26.2 µM; in the assay with SN12C renal, 24.8 µM; in the assay with OVCAR-3 ovarian, 36.7 µM; in the assay on OVCAR-5 ovarian, 26.7 µM. Further, the values for the GI50 in the assay with SK-MEL-5 melanoma, in the assay on U251 CNS and in the assay with SF-268 CNS were 21200 nM, 41 µM and 31.4 µM, respectively. Moreover, the total growth inhibition concentration (TGI) was above 100 µM in the assay with SK-OV-3 ovarian; above 100 µM with HOP-62 NSCLC; 93 µM with HCT-15 colon; 77.4 µM with SN12C renal; above 100 µM with OVCAR-3 ovarian; above 100 µM in the assay with OVCAR-5 ovarian. Moreover, the results for the TGI in the assay on SK-MEL-5 melanoma, in the assay on U251 CNS and in the assay on SF-268 CNS were 49.2 µM, above 100 µM and above 100 µM, respectively.
`O=C(O)/C=C\C(=O)N1C/C(=C\c2ccccc2Cl)C(=O)/C(=C/c2ccccc2Cl)C1`: the GI50 is 4.74 µM in the assay with SK-OV-3 ovarian; 3.4 µM in the assay with HOP-62 NSCLC; 2.3 µM in the assay with HCT-15 colon; 2.93 µM in the assay with SN12C renal; 2.4 µM with OVCAR-3 ovarian; 3030 nM in the assay on SK-MEL-5 melanoma. Moreover, the GI50 in the assay with U251 CNS is 0.472 µM; in the assay with SF-268 CNS, 1.67 µM. The TGI with SK-OV-3 ovarian turned out to be 15.2 µM; in the assay on HOP-62 NSCLC, 8.26 µM; with HCT-15 colon, 6.44 µM; with SN12C renal, 9.31 µM; with OVCAR-3 ovarian, 5.51 µM; in the assay on SK-MEL-5 melanoma, 12 µM. For the same compound, the TGI with U251 CNS came out at 1.88 µM; with SF-268 CNS it was 3.54 µM.
Turning to `N#Cc1c(N2CCCC2)[nH]c(=O)c(C(c2c(Cl)cccc2Cl)c2c(O)c(C#N)c(N3CCCC3)[nH]c2=O)c1O`, the GI50 with SK-OV-3 ovarian is 0.0847 µM; in the assay on HOP-62 NSCLC, 21.2 µM; with HCT-15 colon it was 7.7 µM; in the assay on SN12C renal, 13.6 µM; in the assay on OVCAR-3 ovarian, 3.33 µM; in the assay on OVCAR-5 ovarian, 19.2 µM. Besides, the GI50 in the assay with SK-MEL-5 melanoma was 409 nM; in the assay on U251 CNS, 13.4 µM; with SF-268 CNS, 11.9 µM. The TGI in the assay with SK-OV-3 ovarian was 21 µM; with HOP-62 NSCLC it was 49.6 µM; in the assay with HCT-15 colon, 26.9 µM; with SN12C renal, 33.9 µM; with OVCAR-3 ovarian it was 14.3 µM; in the assay with OVCAR-5 ovarian, 38.3 µM. Further, the total growth inhibition concentration (TGI) was 13.5 µM in the assay with SK-MEL-5 melanoma, 95.1 µM with U251 CNS and 29.3 µM in the assay on SF-268 CNS.
As for `Cc1ccc(N=Nc2c(O)c(C(=O)O)cc3ccccc23)cc1C`, the TGI in the assay on SK-OV-3 ovarian, in the assay on HOP-62 NSCLC, with HCT-15 colon, with OVCAR-3 ovarian, with OVCAR-5 ovarian and in the assay on SK-MEL-5 melanoma was above 100 µM each time. Moreover, the TGI in the assay on U251 CNS and with SF-268 CNS was above 100 µM in each case.
In the case of `COC(=O)[C@@]1(C)CC[C@]2(C)CC[C@]3(C)C4=CC=C5C(=CC(=O)C(O)=C5C)[C@]4(C)[C@@H](O)C[C@@]3(C)[C@@H]2C1`, the GI50 is 19.1 µM in the assay with SK-OV-3 ovarian; 13.3 µM in the assay on HOP-62 NSCLC; 5.07 µM in the assay on HCT-15 colon; 9.65 µM with SN12C renal; 8.63 µM with OVCAR-3 ovarian; 12.9 µM in the assay on OVCAR-5 ovarian. Besides, the GI50 is 16500 nM in the assay with SK-MEL-5 melanoma, 8.71 µM in the assay with U251 CNS and 9.62 µM in the assay on SF-268 CNS. In addition, the TGI in the assay with SK-OV-3 ovarian stood at 42.2 µM; in the assay with HOP-62 NSCLC, 25.9 µM; in the assay with HCT-15 colon it was 17.7 µM; in the assay with SN12C renal, 20.7 µM; in the assay on OVCAR-3 ovarian it was 18.5 µM; in the assay with OVCAR-5 ovarian, 24.5 µM. For the same compound, the TGI with SK-MEL-5 melanoma came out at 32.6 µM; with U251 CNS, 18.7 µM; in the assay on SF-268 CNS, 22.2 µM.
`CCCCCCCCN=C(N)c1ccc(N2CCN(c3ccc(C(N)=NCCCCCCCC)cc3)CC2)cc1`: the GI50 with SK-OV-3 ovarian is 1.76 µM; in the assay on HOP-62 NSCLC it was 7.14 µM; with HCT-15 colon it was 1.79 µM; in the assay with SN12C renal, 1.09 µM; in the assay on OVCAR-3 ovarian, 0.931 µM; in the assay with OVCAR-5 ovarian it was 3.27 µM. The GI50 in the assay with SK-MEL-5 melanoma was 1050 nM; with U251 CNS it was 1.45 µM; in the assay with SF-268 CNS it was 1.85 µM. Moreover, the total growth inhibition concentration (TGI) stood at 10.2 µM in the assay on SK-OV-3 ovarian; 15 µM in the assay with HOP-62 NSCLC; 7.2 µM in the assay on HCT-15 colon; 3.05 µM in the assay on SN12C renal; 3.2 µM in the assay on OVCAR-3 ovarian; 14.4 µM with OVCAR-5 ovarian. Further, the total growth inhibition concentration (TGI) came out at 2.45 µM in the assay with SK-MEL-5 melanoma, 6.33 µM in the assay with U251 CNS and 5.91 µM in the assay with SF-268 CNS.
For `COc1cc(OC(C)=O)cc2c(OC(C)=O)ccc(OC(C)=O)c12`, the concentration for total growth inhibition (TGI) with A498 renal, in the assay with HOP-62 NSCLC, in the assay with HCT-15 colon, in the assay on SN12C renal, in the assay on OVCAR-3 ovarian and in the assay with OVCAR-5 ovarian was above 100 µM each time. Further, the concentration for total growth inhibition (TGI) in the assay on SK-MEL-5 melanoma, in the assay with U251 CNS and with SF-268 CNS was above 100 µM each time.
